As a reminder, the inhibition is the percentage by which the read-out fell short of the control. By pIC50 is commonly meant the IC50 on a negative log10 scale, so that one unit is a factor of ten.

pIC50: −log10 of the molar value.

21 molecules from ChEMBL document CHEMBL5055685, “Discovery of the First Potent IDO1/IDO2 Dual Inhibitors: A Promising Strategy for Cancer Immunotherapy” (J Med Chem, 2021) can be followed below.

Experiment [1] deals with T1, Indoleamine 2,3-dioxygenase 1 (Homo sapiens, UniProt P14902). Put plainly: Inhibition of IDO1 (unknown origin) assessed as reduction in kynurenine formation using L-tryptophan as substrate by methylene blue reagent based assay relative to control. On the set-up: concentration or dose not given beside the values. The following applies: concentration not given here.
Target sequence in this assay (P14902 whole entry, looked up): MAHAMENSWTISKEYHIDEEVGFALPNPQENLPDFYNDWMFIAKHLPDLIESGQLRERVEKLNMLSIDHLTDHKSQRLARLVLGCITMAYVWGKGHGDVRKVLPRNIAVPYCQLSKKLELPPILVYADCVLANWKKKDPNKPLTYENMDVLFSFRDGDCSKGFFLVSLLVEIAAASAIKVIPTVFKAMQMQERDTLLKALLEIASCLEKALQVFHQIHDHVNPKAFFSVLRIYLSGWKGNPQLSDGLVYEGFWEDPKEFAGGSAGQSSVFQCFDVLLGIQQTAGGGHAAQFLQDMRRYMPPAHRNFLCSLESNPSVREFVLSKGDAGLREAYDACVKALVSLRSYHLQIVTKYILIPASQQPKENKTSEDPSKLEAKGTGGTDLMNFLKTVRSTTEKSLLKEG
The target in experiment [2] is T2, Indoleamine 2,3-dioxygenase 2 (Homo sapiens) (UniProt Q6ZQW0).
T2 sequence (whole entry): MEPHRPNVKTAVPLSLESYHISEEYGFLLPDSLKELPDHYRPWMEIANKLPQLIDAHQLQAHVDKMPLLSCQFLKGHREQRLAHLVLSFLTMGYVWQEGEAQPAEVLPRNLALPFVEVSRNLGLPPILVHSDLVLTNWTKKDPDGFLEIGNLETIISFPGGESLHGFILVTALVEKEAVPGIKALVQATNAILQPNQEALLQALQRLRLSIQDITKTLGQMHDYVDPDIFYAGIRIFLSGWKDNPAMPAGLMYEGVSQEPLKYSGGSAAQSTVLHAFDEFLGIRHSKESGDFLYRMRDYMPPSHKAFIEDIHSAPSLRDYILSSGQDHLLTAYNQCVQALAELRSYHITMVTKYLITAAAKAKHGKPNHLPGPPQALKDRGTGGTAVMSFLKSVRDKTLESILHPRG
Put plainly: Inhibition of IDO2 (unknown origin) assessed as reduction in kynurenine formation using L-tryptophan as substrate by methylene blue reagent based assay relative to control. On the set-up: concentration or dose not given beside the values. To be noted: concentration not given here.

The target in experiment [3] is T3, Indoleamine 2,3-dioxygenase 2 (Homo sapiens, UniProt Q6ZQW0).
T3 sequence (Q6ZQW0 whole entry): T2 sequence (whole entry)
Kind of experiment: Inhibition of IDO2 (unknown origin) assessed as reduction in kynurenine formation using L-tryptophan as substrate by methylene blue reagent based assay.

For experiment [4], the target named is T1, Indoleamine 2,3-dioxygenase 1. Kind of experiment: Inhibition of IDO1 (unknown origin) assessed as reduction in kynurenine formation using L-tryptophan as substrate by methylene blue reagent based assay.
Target sequence in this assay (P14902 whole entry): as the sequence (P14902 whole entry, looked up) above
For experiment [5] the target is unchanged. Put plainly: Inhibition of IDO1 in IFNgamma-stimulated human HeLa cells assessed as reduction in kynurenine formation measured after 48 hrs by spectrophotometry.
Target sequence in this assay (P14902 whole entry): as the sequence (P14902 whole entry, looked up) above

As to `COCc1cn(CCNc2nonc2/C(=N/O)Nc2ccc(F)c(Br)c2)nn1`, the inhibition amounted to 20.5% in experiment [1] and 7% in experiment [2].

For `CCC(C)(O)c1cn(CCNc2nonc2/C(=N/O)Nc2ccc(F)c(Br)c2)nn1` (configuration not stated), the pIC50 in experiment [3] was 6.02; in experiment [4], 7.28.

On to `OCCCc1cn(CCNc2nonc2/C(=N/O)Nc2ccc(F)c(Br)c2)nn1`, for which the pIC50 in experiment [3] is 6.02; in experiment [4], 7.01.

For the molecule `OCCc1cn(CCNc2nonc2/C(=N/O)Nc2ccc(F)c(Br)c2)nn1`, the results for the pIC50 in experiment [3] and in experiment [4] were 5.93 and 6.61, respectively.

Take `CCOc1cc(CNC(=O)c2ncoc2-c2ccc(OC)cc2)cc(OCC)c1OCC`: the pIC50 in experiment [5] was 8.20.

Turning to `CCC(O)c1cn(CCNc2nonc2/C(=N/O)Nc2ccc(F)c(Br)c2)nn1` (configuration not stated), the pIC50 in experiment [3] was 6.02; in experiment [4], 7.14.

`CC(C)(C)c1cn(CCNc2nonc2/C(=N/O)Nc2ccc(F)c(Br)c2)nn1`: the pIC50 in experiment [3] is 5.73; in experiment [4], 6.88.

With `O/N=C(\Nc1ccc(F)c(Br)c1)c1nonc1NCCn1cc(-c2ccccc2)nn1`, the inhibition in experiment [1] was 17%; in experiment [2], 4%.

As for `Nc1cccc(-c2cn(CCNc3nonc3/C(=N/O)Nc3ccc(F)c(Br)c3)nn2)c1`, the inhibition in experiment [1] was found to be 7%; in experiment [2] it was 12%.

Turning to `COc1ccc(-c2cn(CCNc3nonc3/C(=N/O)Nc3ccc(F)c(Br)c3)nn2)cc1`, the inhibition is 8% in experiment [1] and 15% in experiment [2].

Take `O/N=C(\Nc1ccc(F)c(Br)c1)c1nonc1NCCn1cc(C2CC2)nn1`: the results for the inhibition in experiment [1] and in experiment [2] were 37% and 10%, respectively.

Consider `CC(OCCO)c1cn(CCNc2nonc2/C(=N/O)Nc2ccc(F)c(Br)c2)nn1` (configuration not stated), for which the results for the pIC50 in experiment [3] and in experiment [4] were 6.03 and 6.87, respectively.

For `CC(C)CC(C)(O)c1cn(CCNc2nonc2/C(=N/O)Nc2ccc(F)c(Br)c2)nn1` (configuration not stated), the pIC50 in experiment [3] was 6.16; in experiment [4], 7.29.

As to `OCCCCc1cn(CCNc2nonc2/C(=N/O)Nc2ccc(F)c(Br)c2)nn1`, the pIC50 in experiment [3] is 5.97; in experiment [4], 7.10.

Turning to `O/N=C(\Nc1ccc(F)c(Br)c1)c1nonc1NCCn1cc(C2(O)CCCCC2)nn1`, the pIC50 was 6.06 in experiment [3] and 7.21 in experiment [4].

As to `CCCCc1cn(CCNc2nonc2/C(=N/O)Nc2ccc(F)c(Br)c2)nn1`, the results for the pIC50 in experiment [3] and in experiment [4] were 6.08 and 6.90, respectively.

`CC(C)(O)c1cn(CCNc2nonc2/C(=N/O)Nc2ccc(F)c(Br)c2)nn1`: the pIC50 in experiment [3] was 6.14; in experiment [4], 6.94.

On to `OCc1cn(CCNc2nonc2/C(=N/O)Nc2ccc(F)c(Br)c2)nn1`, for which the pIC50 is 6.10 in experiment [3] and 7.11 in experiment [4].

Consider `O/N=C(\Nc1ccc(F)c(Br)c1)c1nonc1NCCn1cc(-c2cccc(O)c2)nn1`, for which the values for the inhibition in experiment [1] and in experiment [2] were 38% and 13%, respectively. Also, in experiment [5], the pIC50 was 7.87.

Turning to `Cc1ccc(-c2cn(CCNc3nonc3/C(=N/O)Nc3ccc(F)c(Br)c3)nn2)cc1`, the inhibition in experiment [1] amounted to 12%; in experiment [2], 14%.

For the molecule `CC(C)(OCCO)c1cn(CCNc2nonc2/C(=N/O)Nc2ccc(F)c(Br)c2)nn1`, the pIC50 in experiment [3] is 5.93; in experiment [4], 6.75.
